From article PMC4188605, “Biochemical and Pharmacological Characterization of the Human Lymphocyte Antigen B-Associated Transcript 5 (BAT5/ABHD16A)” (PLoS ONE, 2014)
One block for each molecule: values may come before it.

What was measured:
[1] = target: T1, hMAGL (Homo sapiens, UniProt Q99685); settings: 2-AG as the substrate; range given jointly for hABHD6, hABHD12 and hMAGL; cited from earlier work
T1 construct: expressed in transfected cells; host or cells: HEK
T1 sequence (Q99685 1-303): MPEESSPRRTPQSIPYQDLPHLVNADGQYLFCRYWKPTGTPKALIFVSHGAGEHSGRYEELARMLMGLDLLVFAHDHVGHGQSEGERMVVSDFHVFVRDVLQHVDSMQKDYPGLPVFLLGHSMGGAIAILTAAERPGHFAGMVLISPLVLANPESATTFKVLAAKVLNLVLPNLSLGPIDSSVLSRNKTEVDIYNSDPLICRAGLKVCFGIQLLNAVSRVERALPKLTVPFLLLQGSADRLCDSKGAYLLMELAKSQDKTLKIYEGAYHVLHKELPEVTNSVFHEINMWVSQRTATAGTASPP

[2] = target: T2, hABHD12 (Homo sapiens, UniProt Q8N2K0); parameters: method as in PMID 22969151; settings: 2-AG as the substrate; range given jointly for hABHD6, hABHD12 and hMAGL; cited from earlier work
T2 construct: expressed in transfected cells; host or cells: HEK293
T2 sequence (Q8N2K0 1-398): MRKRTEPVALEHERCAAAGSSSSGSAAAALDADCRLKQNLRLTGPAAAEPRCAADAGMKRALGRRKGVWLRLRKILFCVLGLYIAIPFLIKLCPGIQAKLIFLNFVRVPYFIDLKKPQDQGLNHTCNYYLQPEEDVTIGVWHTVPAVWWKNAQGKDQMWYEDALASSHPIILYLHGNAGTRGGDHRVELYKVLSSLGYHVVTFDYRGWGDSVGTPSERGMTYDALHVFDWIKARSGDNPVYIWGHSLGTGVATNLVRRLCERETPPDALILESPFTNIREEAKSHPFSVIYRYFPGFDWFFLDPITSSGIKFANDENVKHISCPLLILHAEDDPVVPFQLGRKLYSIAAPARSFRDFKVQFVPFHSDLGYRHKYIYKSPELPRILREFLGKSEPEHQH

[3] = target: T3, hABHD6 (Homo sapiens, UniProt Q9BV23); parameters: method as in PMID 22969151; settings: 2-AG as the substrate; range given jointly for hABHD6, hABHD12 and hMAGL; cited from earlier work
T3 construct: expressed in transfected cells; host or cells: HEK293
T3 sequence (Q9BV23 1-337): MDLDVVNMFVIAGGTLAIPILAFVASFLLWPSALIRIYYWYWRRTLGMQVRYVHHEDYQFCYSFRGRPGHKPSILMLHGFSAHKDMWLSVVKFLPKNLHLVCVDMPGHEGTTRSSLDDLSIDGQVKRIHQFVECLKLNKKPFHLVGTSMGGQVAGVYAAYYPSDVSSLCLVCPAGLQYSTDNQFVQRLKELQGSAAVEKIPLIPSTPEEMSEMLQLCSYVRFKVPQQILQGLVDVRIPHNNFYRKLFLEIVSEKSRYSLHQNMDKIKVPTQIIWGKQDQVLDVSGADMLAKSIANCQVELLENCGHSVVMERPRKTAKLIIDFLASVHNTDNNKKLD

[4] = target: T4, FAAH (Mus musculus, UniProt O08914); assay: Competitive ABPP, mouse brain membrane proteome: FAAH band
T4 sequence (O08914 1-579): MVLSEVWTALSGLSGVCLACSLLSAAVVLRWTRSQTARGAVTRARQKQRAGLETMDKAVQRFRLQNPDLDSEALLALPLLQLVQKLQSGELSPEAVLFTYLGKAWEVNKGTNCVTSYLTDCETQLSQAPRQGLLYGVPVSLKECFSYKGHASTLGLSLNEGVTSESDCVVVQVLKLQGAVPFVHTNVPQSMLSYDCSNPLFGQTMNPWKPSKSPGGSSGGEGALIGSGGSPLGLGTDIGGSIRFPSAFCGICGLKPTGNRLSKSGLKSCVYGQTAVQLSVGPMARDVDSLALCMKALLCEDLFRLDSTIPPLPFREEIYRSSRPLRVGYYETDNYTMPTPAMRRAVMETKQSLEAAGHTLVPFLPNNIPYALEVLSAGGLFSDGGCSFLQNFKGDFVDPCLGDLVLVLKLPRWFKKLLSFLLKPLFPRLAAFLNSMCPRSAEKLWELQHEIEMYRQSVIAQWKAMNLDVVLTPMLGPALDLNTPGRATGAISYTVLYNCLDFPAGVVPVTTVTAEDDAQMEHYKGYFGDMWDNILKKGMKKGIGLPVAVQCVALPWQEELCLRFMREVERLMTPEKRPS

[5] = target: T5, MAGL (Mus musculus, UniProt O35678); assay: Competitive ABPP, mouse brain membrane proteome: MAGL doublet
T5 sequence (O35678 1-303): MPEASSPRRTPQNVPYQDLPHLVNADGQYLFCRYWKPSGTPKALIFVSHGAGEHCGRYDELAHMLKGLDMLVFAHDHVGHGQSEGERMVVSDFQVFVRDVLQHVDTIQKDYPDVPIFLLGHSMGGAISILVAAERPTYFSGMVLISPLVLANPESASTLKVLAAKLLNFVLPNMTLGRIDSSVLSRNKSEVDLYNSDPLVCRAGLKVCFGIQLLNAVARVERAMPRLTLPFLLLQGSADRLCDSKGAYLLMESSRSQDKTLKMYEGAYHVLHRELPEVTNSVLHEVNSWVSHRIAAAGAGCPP

[6] = target: T6, ABHD6 (Mus musculus, UniProt Q8R2Y0); assay: Competitive ABPP, mouse brain membrane proteome: ABHD6 band; settings: reference inhibitor at the indicated concentration, used to identify the band (refs 18, 23, 24)
T6 sequence (Q8R2Y0 1-336): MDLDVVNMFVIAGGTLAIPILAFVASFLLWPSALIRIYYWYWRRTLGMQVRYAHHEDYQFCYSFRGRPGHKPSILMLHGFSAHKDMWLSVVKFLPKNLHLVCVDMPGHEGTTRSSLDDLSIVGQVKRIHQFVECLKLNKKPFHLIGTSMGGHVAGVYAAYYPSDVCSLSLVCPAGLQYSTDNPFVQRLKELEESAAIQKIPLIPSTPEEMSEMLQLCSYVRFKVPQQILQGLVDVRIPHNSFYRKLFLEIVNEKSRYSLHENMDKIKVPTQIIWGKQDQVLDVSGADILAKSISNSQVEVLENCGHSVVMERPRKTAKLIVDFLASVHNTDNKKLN

[7] = target: T7, BAT5 (Mus musculus, UniProt Q9Z1Q2); assay: Competitive ABPP, mouse brain membrane proteome: BAT5 band; settings: mouse brain membrane proteome, competitive ABPP
T7 sequence (Q9Z1Q2 1-558): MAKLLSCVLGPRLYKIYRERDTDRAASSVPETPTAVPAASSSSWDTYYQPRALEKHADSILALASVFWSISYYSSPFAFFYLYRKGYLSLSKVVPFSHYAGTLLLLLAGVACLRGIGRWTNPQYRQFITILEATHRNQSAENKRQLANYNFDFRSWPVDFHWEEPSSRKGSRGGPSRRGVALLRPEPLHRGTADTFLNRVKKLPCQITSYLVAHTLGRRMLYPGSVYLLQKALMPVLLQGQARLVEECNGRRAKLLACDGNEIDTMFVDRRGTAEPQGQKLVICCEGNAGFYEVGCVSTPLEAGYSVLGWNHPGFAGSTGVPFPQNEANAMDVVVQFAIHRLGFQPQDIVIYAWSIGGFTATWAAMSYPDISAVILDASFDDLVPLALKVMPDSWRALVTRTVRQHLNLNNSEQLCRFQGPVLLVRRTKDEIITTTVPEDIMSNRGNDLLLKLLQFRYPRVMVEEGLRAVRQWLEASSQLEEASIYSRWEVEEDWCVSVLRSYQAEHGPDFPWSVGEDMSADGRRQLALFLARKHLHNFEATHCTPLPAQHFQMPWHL

[8] = target: T8, KIAA1363 (Mus musculus, UniProt Q8BLF1); assay: Competitive ABPP, mouse brain membrane proteome: KIAA1363 doublet; assay type: binding; settings: 1 µM or indicated concentrations (Figure 11); 60 min
T8 construct: from tissue; host or cells: mouse whole brain membranes
T8 sequence (Q8BLF1 1-408): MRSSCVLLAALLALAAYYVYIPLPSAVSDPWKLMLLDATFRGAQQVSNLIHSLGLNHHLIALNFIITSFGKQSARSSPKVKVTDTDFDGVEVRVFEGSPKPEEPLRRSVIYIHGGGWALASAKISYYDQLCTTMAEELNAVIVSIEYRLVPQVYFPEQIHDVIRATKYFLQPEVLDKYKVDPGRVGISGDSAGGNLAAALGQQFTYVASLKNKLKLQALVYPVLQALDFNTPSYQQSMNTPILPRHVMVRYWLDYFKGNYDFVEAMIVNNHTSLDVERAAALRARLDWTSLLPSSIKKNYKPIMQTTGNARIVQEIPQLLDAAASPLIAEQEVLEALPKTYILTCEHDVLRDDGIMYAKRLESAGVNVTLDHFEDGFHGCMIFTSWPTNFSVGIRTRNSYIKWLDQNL

[9] = target: T9, hBAT5 (Homo sapiens, UniProt O95870); assay: Inhibition of 1-LG hydrolysis in hBAT5-HEK293 lysates (fluorescent glycerol assay); assay type: biochemical; parameters: host or cells: HEK293; settings: 1-LG 25 µM; 30 min inhibitor pretreatment; monitored 90 min; mean, n=3; read-out: IC50
T9 sequence (O95870 1-558): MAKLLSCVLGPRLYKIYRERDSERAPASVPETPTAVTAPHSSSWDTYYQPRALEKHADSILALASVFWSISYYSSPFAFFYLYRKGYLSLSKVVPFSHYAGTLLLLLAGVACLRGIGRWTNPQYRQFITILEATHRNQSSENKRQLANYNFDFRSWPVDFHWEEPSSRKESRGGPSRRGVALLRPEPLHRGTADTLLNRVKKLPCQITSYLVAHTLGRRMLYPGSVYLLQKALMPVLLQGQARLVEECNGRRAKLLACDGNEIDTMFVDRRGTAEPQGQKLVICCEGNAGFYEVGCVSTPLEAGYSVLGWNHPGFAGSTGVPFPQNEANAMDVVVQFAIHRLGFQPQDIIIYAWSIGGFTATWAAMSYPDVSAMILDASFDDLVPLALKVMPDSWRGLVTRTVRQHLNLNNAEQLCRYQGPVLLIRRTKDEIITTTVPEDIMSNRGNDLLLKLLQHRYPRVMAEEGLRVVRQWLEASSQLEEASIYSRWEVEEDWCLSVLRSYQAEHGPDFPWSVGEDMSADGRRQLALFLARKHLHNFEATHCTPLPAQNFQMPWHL

[10] = tested on: LYPLA1/2; assay: Competitive ABPP, mouse brain membrane proteome: LYPLA1/2 band; settings: 1 µM or indicated concentrations (Figure 11); 60 min
[11] = 1 µM or indicated concentrations (Figure 11), 60 min

SMILES: CCCCC/C=C\C/C=C\C/C=C\C/C=C\CCCC(=O)OC(CO)CO [2-AG, 2-arachidonoylglycerol]
- Km [1]: 110 to 160 µM
- Km [2]: 110 to 160 µM
- Km [3]: 110 to 160 µM

SMILES: O=C(Oc1ccc([N+](=O)[O-])cc1)N1CCN(Cc2cccc(Oc3ccccc3)c2)CC1 [JZL195]
- inhibition of probe labeling of FAAH by reference inhibitor ([4]; reference inhibitor at the indicated concentration, used to identify the band (ref 21)): inhibited
- inhibition of probe labeling of MAGL by reference inhibitor ([5]; reference inhibitor at the indicated concentration, used to identify the band (refs 21, 22)): inhibited
- inhibition of probe labeling of ABHD6 by reference inhibitor [6]: inhibited

- BAT5 selectivity among serine hydrolases as compared to 38 [7]: improved BAT5 selectivity
- inhibition of probe binding to FAAH [4, 11]: did not visibly affect probe binding
- inhibition of probe binding to MAGL [5, 11]: did not visibly affect probe binding
- inhibition of probe binding to KIAA1363 [8]: did not visibly affect probe binding
- IC50 [9]: 63 nM
- inhibition of probe binding to LYPLA1/2 [10]: did not visibly affect probe binding
SMILES: COc1nn(-c2cccc([N+](=O)[O-])c2)c(=O)o1 [compound 40, 5-Methoxy-3-(3-nitrophenyl)-1,3,4-oxadiazol-2(3H)-one]

SMILES: COc1nn(-c2ccc(F)cc2)c(=O)o1 [compound 44]
- BAT5 selectivity among serine hydrolases as compared to 38 [7]: improved BAT5 selectivity
- inhibition of probe binding to KIAA1363 [8]: shared one off-target with 38
